Results as given in patent US20040086942A1, “Ige receptor antagonists” (priority 2003, published 2004).
Where “and” joins values, the source holds several entries; their conditions need not be identical. Identical values can stand only once. Like-named read-outs stand apart in the source and are kept apart here. Each block holds one compound with its values, some of them ahead of it. Where a SMILES comes first, the peptide text is derived from it. Bridges are numbered along the chain shown (N, C = ends). [ ]: non-standard residue; d: D form.

How the values were obtained:
FcεRI-IgG = biological target: T1, FcεRI-IgG (Homo sapiens, UniProt P12319); experiment: g3 phage competitive binding ELISA (competition with soluble FcεRI-IgG); details: for Relative (IC50) (fold weaker): relative to g3c.42, NDB = no detectable binding
T1 construct: consisting of the extracellular domain of FcεR Ifused to the Fc domain of IgG; host or cells: CHO cells
T1 sequence (P12319 26-205 limits assumed): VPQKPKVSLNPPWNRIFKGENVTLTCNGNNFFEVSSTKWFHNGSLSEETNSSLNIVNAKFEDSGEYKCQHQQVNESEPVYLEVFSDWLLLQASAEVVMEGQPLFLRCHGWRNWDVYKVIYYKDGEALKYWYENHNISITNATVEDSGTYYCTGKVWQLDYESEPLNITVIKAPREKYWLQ
Method: A phage based competitive binding ELISA for immobilized FcεRI-IgG in the presence of titrated amounts of soluble FcεRI-IgG was performed on each of the clones.
Peptide sequences from g8p-fused phage clones that specifically bound FcεRI-IgG were transferred onto a g3p-display format for monovalent phage display (Bass et al., Proteins 8, 309-314 (1990); Lowman et al., Biochemistry 30, 10832-10838 (1991)). An oligonucleotide encoding for each desired peptide with additional 5′ and 3′ base pair that overlapped with g3 was synthesized. This oligonucleotide was annealed with a g3 single stranded DNA phagemid template. The mutagenesis reaction was transformed into XL-1 Blue E. coli and plated on LB-carb+ agar plates. Individual colonies were propagated in 5 mL of 2YT broth, tetracycline, carbenicillin and VCSM13 helper phage (Stratagene). Single stranded DNA was isolated from the purified phage particles and sequenced to confirm the insertion of the phage peptide sequence. 25 mL preparations of g3 phage clones were propagated overnight and purified by PEG precipitation. After resuspension of the phage pellet in 1.0 mL of PBS, it was serially diluted ⅓ and incubated with immobilized FcεRI-IgG 2 ug/mL in a 96 well Maxisorp microtiter plate for 1 hour at room temperature. The wells were washed 10× with PBST then incubated with 100 uL of anti M13 phage HRP as described above. An OD(492) value corresponding to less than 50% binding was selected and the purified phage clones were diluted to yield this normalized level of signal. […] The mixture was then transferred to 96 well microtiter dishes containing immobilized FcεRI-IgG. After a 1-hour incubation period, the plates were washed 10 times, incubated with anti M13-HRP conjugated antibody and developed with OPD as described above. The data was plotted, and 4-parameter fits (KaleidaGraph 3.0) used for calculation of IC50 values.
Alanine substitutions were made at various positions throughout the peptide sequence for monovalent (g3p) phage display using site directed mutagenesis as described (Kunkel et al., Methods Enzymol. 204, 125-139 (1991)). In addition, stepwise N-terminal and C-terminal truncations of the peptide sequence were constructed. All constructs were made by designing oligonucleotides corresponding to the desired substitution or truncation, with an additional 18 bp of DNA overlapping the peptide or g3 phage DNA sequence. The phage clones were propagated overnight following infection in XL-1 Blue E. coli. Purified phage preparations were titered and assayed for binding to immobilized receptor. FcεRI-IgG competition assays were performed as described above.

[1] = 2D NMR structural score versus reference peptide; type: physicochemical; parameters: key to Struct. Score: +++ indicates the peptide is structured similarly to IGE063 (SEQ ID NO:49); + indicates the peptide is structured similarly to IGE063 (SEQ ID NO:49), but is less stable; −/+ indicates the peptide has some elements of stable structure, but the conformation differs from the reference structure (e.g., a different turn type is evident); − indicates the peptide is predominantly unstructured in aqueous solution; key to Structure Score: +++, peptide structurally similar to reference; +, structurally similar to reference but significantly less stable; +/−, peptide has some elements of stable structure, but the conformation differs from the reference structure; −, peptide is predominantly unstructured; *peptide IGE037 (SEQ ID NO:128) was initially unstructured (monomeric form), but became structured after spontaneous dimer formation; details: for Struct. Score: reference IGE063
Method: Peptides were evaluated by 2D NMR spectroscopy to assess the effect of substitutions on the three-dimensional structure of the peptide analog. All peptides with a structural score indicated in Table 5 were analyzed by 2D NMR spectroscopy; backbone ^1H resonances were assigned and ^3JHN-Hα coupling constants were measured and compared to the reference peptide (IGE063, SEQ ID NO:49; see Example 5). Peptides are defined to be of similar structure to the reference peptide provided chemical shifts, coupling constants, and NOEs are consistent with that structure.
A structural score was assigned to peptides analyzed by 2D NMR spectroscopy. For each of these peptides, backbone ^1H resonances have been assigned, and the ^3JHN-Ha coupling constants have been measured and compared to the reference peptide (i.e., IGE134 (SEQ ID NOS:155, 171)). Peptides are defined to be of similar structure to the reference peptide provided. chemical shifts, coupling constants, and NOEs are consistent with that structure.

[2] = biological target: T2, alpha subunit of the human FcεRI receptor (Homo sapiens, UniProt P12319); experiment: cell-based 125I-IgE binding inhibition assay on CHO FcεRI+ cells; details: for fold reduction in inhibition/binding: truncations and alanine substitutions of IGE063
T2 construct: expressed in transfected cells; host or cells: Chinese hamster ovary (CHO FcεRI+) cells
T2 sequence (P12319 26-257): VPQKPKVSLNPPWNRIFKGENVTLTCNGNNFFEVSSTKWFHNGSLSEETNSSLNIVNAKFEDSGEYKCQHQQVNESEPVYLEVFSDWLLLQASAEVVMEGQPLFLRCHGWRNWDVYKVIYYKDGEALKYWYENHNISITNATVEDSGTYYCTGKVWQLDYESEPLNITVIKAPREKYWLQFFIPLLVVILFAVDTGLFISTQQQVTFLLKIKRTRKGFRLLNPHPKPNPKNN
In short: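 Peptides, serially diluted 1:3 from 50-500 uM, preincubated 1 h at room temperature on CHO cells expressing human FcεRI alpha, then 1.5 nM 125I-IgE added for 45-60 min at 4 °C. Buffer F12/DMEM, 1% BSA, 0.05% NaN3, pH 7.2. Bound counts by gamma counting; IC50 from 4-parameter fits.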

[3] = truncated peptides on g3 phage, read-out: IC50
[4] = g3 phage clones, immobilized FcεRI-IgG, titrated soluble FcεRI-IgG, read-out: Phage IC50
[5] = inhibition of labeled IgE-binding to CHO FcεRI+ cells, read-out: Mean IC50(uM) ± S.D.

Compound: CSCC[C@H](NC(=O)[C@@H]1CSSC[C@H](NC(=O)[C@H](CCCNC(=N)N)NC(=O)[C@@H]2CCCN2C(=O)[C@H](CC(C)C)NC(=O)[C@@H](N)CC(N)=O)C(=O)N[C@@H]([C@@H](C)O)C(=O)N[C@@H](CCC(=O)O)C(=O)NCC(=O)N2CCC[C@H]2C(=O)N[C@@H](Cc2c[nH]c3ccccc23)C(=O)NCC(=O)N[C@@H](C)C(=O)N[C@@H](C(C)C)C(=O)N1)C(=O)O [IGE073, NLPRCTEGPWGAVCM] (H-NLPRCTEGPWGAVCM-OH; disulfide 5-14; N-terminus and C-terminus assumed)
Struct. Score [1]: + | fold reduction in inhibition/binding [2]: 65 fold

Compound: DLPACTEGPWGWVCMAAD [g3b.7]
IC50 (FcεRI-IgG; [4]): 9 nM

Compound: CSCC[C@H](NC(=O)[C@@H]1CSSC[C@H](NC(=O)[C@H](CCCNC(=N)N)NC(=O)[C@@H]2CCCN2C(=O)[C@H](CC(C)C)NC(=O)[C@@H](N)CC(N)=O)C(=O)N[C@@H]([C@@H](C)O)C(=O)N[C@@H](CCC(=O)O)C(=O)N[C@@H](C)C(=O)N2CCC[C@H]2C(=O)N[C@@H](Cc2c[nH]c3ccccc23)C(=O)NCC(=O)N[C@@H](Cc2c[nH]c3ccccc23)C(=O)N[C@@H](C(C)C)C(=O)N1)C(=O)O [IGE079, NLPRCTEAPWGWVCM] (H-NLPRCTEAPWGWVCM-OH; disulfide 5-14; N-terminus and C-terminus assumed)
Struct. Score [1]: +++ | fold reduction in inhibition/binding [2]: 256 fold

Compound: CSCC[C@H](NC(=O)[C@@H]1CSSC[C@H](NC(=O)[C@H](CCCNC(=N)N)NC(=O)[C@@H]2CCCN2C(=O)[C@H](CC(C)C)NC(=O)[C@@H](N)CC(N)=O)C(=O)N[C@@H]([C@@H](C)O)C(=O)N[C@@H](CCC(=O)O)C(=O)NCC(=O)N2CCC[C@H]2C(=O)N[C@@H](Cc2c[nH]c3ccccc23)C(=O)NCC(=O)N[C@@H](Cc2c[nH]c3ccccc23)C(=O)N[C@@H](C(C)C)C(=O)N1)C(=O)O [IGE062, NLPRCTEGPWGWVCM] (H-NLPRCTEGPWGWVCM-OH; disulfide 5-14; N-terminus and C-terminus assumed)
Struct. Score [1]: +++ | IC50 [2, 5]: 1 ± 0.6 µM

Compound: GRTECTEGPWGWVCMAAD [g3b.8]
IC50 (FcεRI-IgG; [4]): 14 nM

Compound: CSCC[C@H](NC(=O)[C@@H]1CSSC[C@H](NC(=O)[C@H](CCCNC(=N)N)NC(=O)[C@@H]2CCCN2C(=O)[C@H](CC(C)C)NC(=O)[C@@H](N)CC(N)=O)C(=O)N[C@@H]([C@@H](C)O)C(=O)N[C@@H](CCC(=O)O)C(=O)NCC(=O)N2CCC[C@H]2C(=O)N[C@@H](Cc2c[nH]c3ccccc23)C(=O)N[C@@H](C)C(=O)N[C@@H](Cc2c[nH]c3ccccc23)C(=O)N[C@@H](C(C)C)C(=O)N1)C(=O)O [IGE074, NLPRCTEGPWAWVCM] (H-NLPRCTEGPWAWVCM-OH; disulfide 5-14)
Struct. Score [1]: + | fold reduction in inhibition/binding [2]: 30 fold

Compound: CC(=O)N[C@@H](C)C(=O)N[C@@H](CC(C)C)C(=O)N[C@H]1CSSC[C@@H](C(=O)N[C@@H](Cc2ccc(O)cc2)C(=O)N[C@H](C(N)=O)C(C)C)NC(=O)[C@H](C(C)C)NC(=O)[C@H](C)NC(=O)[C@@H]2CCCN2C1=O [IGE038, Ac-ALCPAVCYV-nh2] (Ac-ALCPAVCYV-NH2; disulfide 3-7)
Structure Score ([1]; reference IGE134): − | IC50 ([2]; IGE037: initially, read-out: IC50): > 500 µM

Compound: CSCC[C@H](NC(=O)[C@@H]1CSSC[C@H](NC(=O)[C@H](CCCNC(=N)N)NC(=O)[C@@H]2CCCN2C(=O)[C@H](CC(C)C)NC(=O)[C@H](CC(N)=O)NC(C)=O)C(=O)N[C@@H]([C@@H](C)O)C(=O)N[C@@H](CCC(=O)O)C(=O)NCC(=O)N2CCC[C@H]2C(=O)N[C@@H](Cc2c[nH]c3ccccc23)C(=O)NCC(=O)N[C@@H](Cc2c[nH]c3ccccc23)C(=O)N[C@@H](C(C)C)C(=O)N1)C(=O)N[C@@H](C)C(=O)N[C@@H](CC(=O)O)C(=O)N[C@@H](CC(=O)O)C(N)=O [IGE031, Ac-NLPRCTEGPWGWVCMADD-nh2] (Ac-NLPRCTEGPWGWVCMADD-NH2; disulfide 5-14)
Struct. Score [1]: +++ | IC50 [2, 5]: 1.1 ± 0.7 µM

Compound: AMAQCTEGPWGWVCMAAD [g3b.5]
IC50 (FcεRI-IgG; [4]): 10 nM

Compound: GRAQCTEGPWGWVCMAAD [g3b.6]
IC50 (FcεRI-IgG; [4]): 16 nM

Compound: NLPRCTEGPWGWVCMAAD [g3b.1]
IC50 (FcεRI-IgG; [4]): 13 nM

Compound: LPRCTEGPWGWVCMAAD [g3c.1]
Relative (IC50) (fold weaker) (FcεRI-IgG; truncated peptides on g3 phage): 1X | IC50 (FcεRI-IgG; [3]): 3 nM

Compound: CSCC[C@H](NC(=O)[C@@H]1CSSC[C@H](NC(=O)[C@H](CCCNC(=N)N)NC(=O)[C@@H]2CCCN2C(=O)[C@H](CC(C)C)NC(=O)[C@H](CC(N)=O)NC(C)=O)C(=O)N[C@@H]([C@@H](C)O)C(=O)N[C@@H](CCC(=O)O)C(=O)NCC(=O)N2CCC[C@H]2C(=O)N[C@@H](Cc2c[nH]c3ccccc23)C(=O)N[C@H](CCC(=O)O)C(=O)N[C@@H](Cc2c[nH]c3ccccc23)C(=O)N[C@@H](C(C)C)C(=O)N1)C(=O)O [IGE114, Ac-NLPRCTEGPWeWVCM] (Ac-NLPRCTEGPW[dE]WVCM-OH; disulfide 5-14)
Struct. Score [1]: +++ | IC50 [2, 5]: 1.7 µM

Compound: NLPTCTEGPWGWVCMAAD [g3b.3]
IC50 (FcεRI-IgG; [4]): 7 nM

Compound: VMPTCTEGPWGWVCMAAD [g3b.4]
IC50 (FcεRI-IgG; [4]): 7 nM

The next lines start with the values.

Relative (IC50) (fold weaker) (FcεRI-IgG; truncated peptides on g3 phage): 1X | IC50 (FcεRI-IgG; [3]): 5 nM
Compound: NLPRCTEGPWGWVCMAA [g3c.29]

Relative (IC50) (fold weaker) (FcεRI-IgG; truncated peptides on g3 phage): 1X | IC50 (FcεRI-IgG; [3]): 3.1 nM and 5.6 nM
Compound: NLPRCTEGPWGWVCMAAD [g3c.42]

Relative (IC50) (fold weaker) (FcεRI-IgG; truncated peptides on g3 phage): 3X | IC50 (FcεRI-IgG; [3]): 14.6 nM
Compound: NLPRCTEGPWGWVCM [g3c.34]

Relative (IC50) (fold weaker) (FcεRI-IgG; truncated peptides on g3 phage): NDB
Compound: RCTEGPWGWVCMAAD [g3c.17]

Relative (IC50) (fold weaker) (FcεRI-IgG; truncated peptides on g3 phage): NDB
Compound: CTEGPWGWVCMAAD [g3c.21]

Relative (IC50) (fold weaker) (FcεRI-IgG; truncated peptides on g3 phage): 1X | IC50 (FcεRI-IgG; [3]): 6.1 nM
Compound: NLPRCTEGPWGWVCMA [g3c.31]
